Experimental data from paper PMC10709440, “High-throughput ligand profile characterization in novel cell lines expressing seven heterologous insect olfactory receptors for the detection of volatile plant biomarkers” (Scientific Reports, 2023).
Where two headings read alike, the source gives them in different places.

Legend:
Drosophila OR85b = target: T1, Drosophila OR85b (Drosophila melanogaster, UniProt Q9VHQ7); assay: Calcium ion fluorescence (GCaMP6) assay, OR85b stable HEK293 cell line; format: cell-based; settings: for Average response / OR85b response (VUAA1-normalized) at 1 μM / OR85b response (VUAA1-normalized) at 10 μM / OR85b response (VUAA1-normalized) at 100 μM: OR85b cell line; for Average response: VUAA1-normalized response, mean of biological replicates
T1 construct: expressed in transfected cells
T1 sequence (Q9VHQ7 1-390): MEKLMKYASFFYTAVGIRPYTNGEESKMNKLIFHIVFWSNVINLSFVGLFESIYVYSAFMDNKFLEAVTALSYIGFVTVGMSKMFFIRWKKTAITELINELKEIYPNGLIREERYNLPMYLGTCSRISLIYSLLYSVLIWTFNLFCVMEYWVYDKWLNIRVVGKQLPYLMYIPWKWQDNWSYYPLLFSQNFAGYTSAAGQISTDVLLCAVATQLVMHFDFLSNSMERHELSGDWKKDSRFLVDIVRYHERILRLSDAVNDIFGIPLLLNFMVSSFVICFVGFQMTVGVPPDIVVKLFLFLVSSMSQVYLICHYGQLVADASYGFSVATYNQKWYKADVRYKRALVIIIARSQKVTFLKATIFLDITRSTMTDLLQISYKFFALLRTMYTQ
T1 sequence (Q9VNB5 1-486 partner): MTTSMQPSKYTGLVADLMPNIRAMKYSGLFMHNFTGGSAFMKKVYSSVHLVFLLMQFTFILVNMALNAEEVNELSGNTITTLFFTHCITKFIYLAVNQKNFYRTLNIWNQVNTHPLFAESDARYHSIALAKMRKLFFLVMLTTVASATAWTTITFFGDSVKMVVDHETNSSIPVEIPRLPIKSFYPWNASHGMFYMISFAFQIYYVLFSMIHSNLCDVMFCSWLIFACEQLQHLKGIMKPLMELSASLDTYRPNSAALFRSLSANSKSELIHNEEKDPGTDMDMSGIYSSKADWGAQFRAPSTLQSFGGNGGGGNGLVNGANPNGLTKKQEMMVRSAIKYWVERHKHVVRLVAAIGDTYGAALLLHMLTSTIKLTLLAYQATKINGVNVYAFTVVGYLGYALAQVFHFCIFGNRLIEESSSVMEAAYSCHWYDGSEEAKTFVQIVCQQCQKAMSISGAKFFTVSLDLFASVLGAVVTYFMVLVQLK
Method: These VUAA1 normalized ∆F values were used to compare the different receptors and ligands.
The concentration-dependent effect of the reference ligands on their cognate cell lines was examined in more detail. Twelve different ligand concentrations were measured on each cell line in an overall 0.01 μM to 100 μM concentration range with 5 repetitions with three technical replicates each time.
Twelve thousand to 18,000 cells were plated into each well of a black wall, transparent bottom 384-well microplate (Greiner) 48 h or 72 h before the measurements and were simultaneously treated with 1 μg/mL doxycycline. […] The plate has 24 columns, thus we could record responses in up to eight different cell lines in each plate. On the day of the experiment, the growth medium was replaced with 20 µL assay buffer/well (140 mM NaCl, 5 mM KCl, 2 mM CaCl2, 1 mM MgCl2, 5 mM HEPES-Na, 20 mM glucose, pH 7.3, 340 mOsm). […] Baseline fluorescence (F0) was recorded for 5 s, after which 7 µL VOC buffer (140 mM NaCl, 5 mM KCl, 2 mM CaCl2, 1 mM MgCl2, 5 mM HEPES-Na, 31 mM glucose, 0.1% DMSO, pH 7.3, 340 mOsm) was injected into each well in one row and the fluorescence response was recorded for an additional 30 s, at a rate of one read/sec. VOC solutions (VOC buffer with 4× concentration of the final measured VOC concentration, 9 µL/well was injected) were measured on the same wells in a second round with the same protocol. Each individual concentration of a specific VOC sample was recorded in three wells for the same cell line on the same microplate. The raw data were exported in xls file format, F0 and FMAX values, and the fluorescence intensity changes (∆F) were calculated in Excel (Microsoft) (Supplementary file Data summary.xlsx) using the following equation: ΔF=FMAX-F0/F0 (see also Fig. 1C). On each plate, we recorded the response of each cell line to 50 µM VUAA1. The average of these ∆F values of each cell line were used to calculate the VUAA1-normalized values for the rest of the plate, by dividing VOC response ∆F values by the average VUAA1 response ∆F value of the corresponding OR cell line. Each VOC-OR combination was measured three times as technical replicates. […] The average of these replicates were used as one ∆F and VUAA1-normalized ∆F in the following analysis.
In the next rows we tested the reference VOCs (or other VOCs known to activate the corresponding cell lines), in order to test if all cell lines are responsive. The remaining rows were used to test VOCs with unknown effect.
The recorded FMAX, F0, ∆F, VUAA1-normalized ∆F values, as well as the OR name, the name of the tested sample, and the final concentration for each well were copied into supplementary file Data summary.xlsx, that was used to summarize all the plates recorded. Here, the averages of the measurements were calculated for each receptor-VOC-concentration combination.

OR10a = system: OR10a; design: method as in earlier work; settings: DoOR database value, ref DoOR, cited from earlier work
OR47a = system: OR47a; design: method as in earlier work; settings: DoOR database value; ref DoOR; cited from earlier work
OR49b = system: OR49b; design: method as in earlier work; settings: DoOR database value, ref DoOR, cited from earlier work
OR85b = system: OR85b; design: method as in earlier work; settings: DoOR database value, ref DoOR, cited from earlier work
OR98a = system: OR98a; design: method as in earlier work; settings: DoOR database value, ref DoOR, cited from earlier work
[1] = HEK293, read-out: OR85b response (VUAA1-normalized response)
[2] = concentration 1, normalized fluorescence change, values below 0.05 threshold given as 0
[3] = concentration 10, normalized fluorescence change, values below 0.05 threshold given as 0
[4] = concentration 100, normalized fluorescence change, values below 0.05 threshold given as 0
[5] = ligand concentration 1 (unit not given), threshold 0.05, below shown as 0
[6] = ligand concentration 10 (unit not given), threshold 0.05, below shown as 0
[7] = ligand concentration 100 (unit not given), threshold 0.05, below shown as 0
[8] = ligand concentration 1 (unit not given), 0.05 threshold, values below shown as 0
[9] = ligand concentration 10 (unit not given), 0.05 threshold, values below shown as 0
[10] = ligand concentration 100 (unit not given), 0.05 threshold, values below shown as 0
[11] = HEK293, read-out: OR85b Average response (VUAA1-normalized)

Molecule	Average response (Drosophila OR85b; cc. 1 µM)	Average response (Drosophila OR85b; cc. 10 µM)	Average response (Drosophila OR85b; cc. 100 µM)	DF norm AVERAGE OR85b (Drosophila OR85b; [2])	DF norm AVERAGE OR85b (Drosophila OR85b; [3])	DF norm AVERAGE OR85b (Drosophila OR85b; [4])	OR85b response (VUAA1-normalized) at 1 μM (Drosophila OR85b; VOC concentration 1 μM)	OR85b response (VUAA1-normalized) at 10 μM (Drosophila OR85b; VOC concentration 10 μM)	OR85b response (VUAA1-normalized) at 100 μM (Drosophila OR85b; VOC concentration 100 μM)	DF norm AVERAGE OR85b (Drosophila OR85b; [8])	DF norm AVERAGE OR85b (Drosophila OR85b; [9])	DF norm AVERAGE OR85b (Drosophila OR85b; [10])	further results
CCCCCO [1-pentanol]	0.00	0.00	0.00	0	0	0	–	–	–	–	–	–	activation at 1 µM (Drosophila OR85b; [1]): 0%; activation at 10 µM (Drosophila OR85b; [1]): 0%; activation at 100 µM (Drosophila OR85b; [1]): 0%; OR10a DoOR response (OR10a): 0.034; OR47a DoOR response (OR47a): 0.17; OR49b DoOR response (OR49b): 0.09; OR85b DoOR response (OR85b): 0.51; OR98a DoOR response (OR98a): 0.23
CC1=CCC2C(C1)C2(C)C (stereo not drawn) [3-carene]	0.00	0.00	0.00	0	0	0	–	–	–	–	–	–	activation at 1 µM (Drosophila OR85b; [1]): 0%; activation at 10 µM (Drosophila OR85b; [1]): 0%; activation at 100 µM (Drosophila OR85b; [1]): 0%; OR10a DoOR response (OR10a): -0.005; OR47a DoOR response (OR47a): -0.002; OR49b DoOR response (OR49b): 0.002; OR85b DoOR response (OR85b): -0.008; OR98a DoOR response (OR98a): -0.009
Cc1cccc(O)c1 [3-methylphenol]	0.0267	0.0173	0.02	0	0	0	–	–	–	–	–	–	activation at 1 µM (Drosophila OR85b; [1]): 0%; activation at 10 µM (Drosophila OR85b; [1]): 0%; activation at 100 µM (Drosophila OR85b; [1]): 0%; OR49b DoOR response (OR49b): 0.54
CCCCOC(=O)CC [butyl propanoate]	–	–	–	–	–	–	–	–	–	–	–	–	OR10a DoOR response (OR10a): 0.011; OR47a DoOR response (OR47a): 0.38
CCCCCCCCCC=O [decanal]	0.00	0.0324	0.00	–	–	–	–	–	–	–	–	–	activation at 1 µM (Drosophila OR85b; [1]): 0%; activation at 10 µM (Drosophila OR85b; [1]): 0%; activation at 100 µM (Drosophila OR85b; [1]): 0%; DF norm AVERAGE OR85b (Drosophila OR85b; [5]): 0; DF norm AVERAGE OR85b (Drosophila OR85b; [6]): 0; DF norm AVERAGE OR85b (Drosophila OR85b; [7]): 0; OR10a DoOR response (OR10a): 0.08
CCCCCCCCC=O [nonanal]	0.00	0.00	0.00	–	–	–	0.00	0.00	0.00	–	–	–	DF norm AVERAGE OR85b (Drosophila OR85b; [5]): 0; DF norm AVERAGE OR85b (Drosophila OR85b; [6]): 0; DF norm AVERAGE OR85b (Drosophila OR85b; [7]): 0; OR10a DoOR response (OR10a; OR10a): 0.05; OR49b DoOR response (OR49b; OR49b): 0.03; OR85b DoOR response (OR85b; OR85b): 0.091; OR98a DoOR response (OR98a; OR98a): 0.085
C=Cc1ccccc1 [styrene]	0.00	0.00	0.0181	–	–	–	0.00	0.00	0.00	0	0	0	–
CCCCCCCCCCCCCC [tetradecane]	0.10	0.0844	0.04	–	–	–	0.10	0.0844	0.00	0.0972	0.08442	0	–
Cc1ccccc1 [toluene]	0.0843	0.07	0.11	–	–	–	0.0843	0.07	0.11	0.08429	0.067	0.1125	activation at 1 µM (Drosophila OR85b; [11]): 8%; activation at 10 µM (Drosophila OR85b; [11]): 7%; activation at 100 µM (Drosophila OR85b; [11]): 11%
CCCCCCCCCCC [undecane]	0.0284	0.05	0.11	–	–	–	0.00	0.05	0.11	0	0.05165	0.1131	activation at 1 µM (Drosophila OR85b; [11]): 3%; activation at 10 µM (Drosophila OR85b; [11]): 5%; activation at 100 µM (Drosophila OR85b; [11]): 11%
CC/C=C\CCOC(C)=O [z3-hexenyl acetate]	0.15	0.00	0.00	–	–	–	–	–	–	0.1453	0	0	–
CC1=CCC23CC1C(C)(C)C2CCC3C (stereo not drawn) [α-funebrene]	0.10	0.00	0.26	–	–	–	0.10	0.00	0.26	0.09747	0	0.2621	activation at 1 µM (Drosophila OR85b; [11]): 10%; activation at 10 µM (Drosophila OR85b; [11]): 0%; activation at 100 µM (Drosophila OR85b; [11]): 26%
(+)-beta-cedrene	0.00	0.0468	0.0135	0	0	0	–	–	–	–	–	–	OR85b response (VUAA1-normalized response) (Drosophila OR85b; VOC concentration 1 μM): 0.00; OR85b response (VUAA1-normalized response) (Drosophila OR85b; VOC concentration 10 μM): 0.00; OR85b response (VUAA1-normalized response) (Drosophila OR85b; VOC concentration 100 μM): 0.00
(-)-alpha-cedrene	0.00	0.0466	0.0948	0	0	0.09481	–	–	–	–	–	–	OR85b response (VUAA1-normalized response) (Drosophila OR85b; VOC concentration 1 μM): 0.00; OR85b response (VUAA1-normalized response) (Drosophila OR85b; VOC concentration 10 μM): 0.00; OR85b response (VUAA1-normalized response) (Drosophila OR85b; VOC concentration 100 μM): 0.0948
